# Test results published in patent US20060286032A1, “A radiosotope-chitosan complex for treatment of prostate cancer” (priority 2003, published 2006).
# Marks after values point to notes of the source that are not given here.
# Key:
# [1] = Autoradiography, complex solution versus ^166Ho(NO3)3.5H2O solution not containing chitosan, injected into the prostate gland; type: in vivo, rats; settings: for Radioactive concentration, Administration site / Radioactive concentration, End region of femur / Radioactive concentration, Liver / Radioactive concentration, Spine / Radioactive concentration, Spleen / Radioactive concentration, Kidney: 25 μl (about 100 μCi); for Radioactivity retained in the administration site, the prostate gland: 24 hrs after being administered
# Protocol: To investigate advantages of the ^166Ho-chitosan complex, autoradiography was carried out for a group administered with the complex solution and a control group administered with a ^166Ho(NO3)3.5H2O solution not containing chitosan. In the complex solution administration group, 25 μl of the complex solution was administered, which was equal to about 100 μCi. The control group was administered with a ^166Ho(NO3)3.5H2O solution not containing chitosan with the same dosage and radioactive concentration as in the complex solution administration group. This test was carried out according to the same method as in Experimental Example 1, and each test drug was administered to the prostate gland. After 0.5, 2, 6 and 24 hrs, rats were sacrificed and evaluated by autoradiography. The measured radioactive concentrations (% ID/g) in various organs after injection of the complex solution and the ^166Ho(NO3)3.5H2O solution are given in Table 2, below.
# [2] = system: AIT carcinoma (androgen-independent carcinoma cell line); test: Antitumor effect in AIT subcutaneous tumor model; type: in vivo, noble rats; settings: non-radioactive complex group; for Tumor growth inhibition rate: four weeks, tumor weight vs control
# Protocol: To evaluate the effect of the complex on hormone-independent prostate cancer, an AIT carcinoma (androgen-independent carcinoma cell line) was transplanted into noble rats, and the antitumor effect of the complex was examined.
# An androgen-independent, prostate carcinoma cell line, AIT, which is derived from noble rats, was cultured in 10% FBS-containing DMEM at 37° under 5% CO2. The cultured carcinoma cells were suspended in sterile physiological saline at a density of 4×10^6 cells/ml, and 2×10^6 cells were subcutaneously transplanted into the lateral abdomen of male 5-week noble rats. When the long axis of the tumor was about 1 cm long (in this test, 14 days after transplantation), the rats were grouped according to the tumor mass. The kit prepared in Example 2 was used as a test drug, and was administered at the same dose as in Experimental Example 5, that is, 0.2 ml. The rats were divided into four groups: a control group (no treatment); two administration groups administered with the complex solution at 10 mCi and 20 mCi per 1 cm^3 tumor; and another administration group administered with a non-radioactive complex solution (Holmium-165 (^165Ho)-chitosan complex solution). Four weeks after administration with the complex solution, tumors were excised from the rats, and tumor growth inhibition rates were measured by weighing the tumors.
# [3] = Histopathological examination of organs of rats of the orthotopic model (hematoxylin and eosin); type: in vivo, noble rats; settings: last day of the test
# Excerpt: From all rats tested in Experimental Example 7, which were sacrificed on the last day of the test, the heart, lung, liver, kidney, spleen, testes, epididymis, seminal vesicle, bladder, rectum and tumor tissues were excised, embedded in paraffin according to general tissue processing, and sectioned into a thickness of 3 μm. The tissue sections were subjected to double staining with hematoxylin and eosin and histopathologically examined.
# [4] = system: DU-145 carcinoma cell line (hormone-independent prostate carcinoma cell line); test: Antitumor effect in DU-145 subcutaneous tumor model, intratumoral injection; type: in vivo, nude mice; settings: for Tumor volume after injection / Tumor growth inhibition rate: non-radioactive complex group; for Tumor volume after injection: 0.2 ml intratumoral; for Tumor growth inhibition rate: last day of the test (2 wks), tumor volume vs control
# Protocol: To investigate the effect of the complex on hormone-independent prostate cancer, a DU-145 carcinoma cell line (hormone-independent prostate carcinoma cell line), which is rarely produces prostate-specific antigen, was transplanted into nude mice and the antitumor effect of the complex was evaluated.
# The DU-145 cells were cultured in 10% FBS (fetal bovine serum)-containing F-12K(Kaign's Modification of Ham's F-12 medium) in a 5% CO2 incubator at 37° C., and 2×10^5 cells/0.2 ml/head were subcutaneously transplanted into the lumbar portion of male 6-week nude mice. When the long axis of the tumor was about 1 cm long, the complex solution was intratumorally injected. The administration volume of the test drug was 0.2 ml. The mice were divided into four groups: a control group (no treatment); two administration groups administered with the complex solution at doses of 10 mCi and 20 mCi per 1 cm^3 tumor; and another administration group administered with a non-radioactive complex solution [Holmium-165 (^165Ho)-chitosan complex solution]. Two weeks after administration with the complex solution, the mice were histopathologically examined to evaluate the antitumor effect and toxicity to major organs of the complex.
# [5] = system: AIT prostate carcinoma cells; test: Antitumor effect in orthotopic tumor model, AIT transplanted into the prostate gland; type: in vivo, noble rats; settings: non-radioactive complex group
# Protocol: In addition to the subcutaneous tumor model tested in Experimental Example 6, the antitumor effect and side effects of the complex solution was examined in an orthotopic tumor model where AIT prostate carcinoma cells had been directly transplanted into the prostate gland. AIT cells were cultured in 10% FBS-containing DMEM at 37° under 5% CO2. The cultured carcinoma cells were suspended in sterile physiological saline at a density of 2×10^6 cells/0.05 ml. After noble rats were anesthetized with fentanyl and the abdomen was opened, 2×10^6 cells per rat were transplanted into the prostate gland of the rats. Seven days after carcinoma transplantation, the rats were randomly allocated. The kit prepared in Example 2 was used as a test drug, and 0.05 ml of the kit was administered. The rats were divided into four groups: a control group (no treatment); two administration groups administered with 0.5 mCi and 1.0 mCi of the complex solution; and another administration group administered with a non-radioactive complex solution (Holmium-165 (^165Ho)-chitosan complex solution). Two and four weeks after administration of the complex solution, the rats were sacrificed, and tumors were excised from the rats and weighed.
# [6] = listed as non-radioactive complex solution
molecule,measurement,setting,value
"O.O.O.O.O.O=[N+]([O-])[O-].O=[N+]([O-])[O-].O=[N+]([O-])[O-].[166Ho+3] [^166Ho, ^166Ho(NO3)3.5H2O]","Radioactive concentration, Administration site",[1]; 30 min,4532 ± 513.4 % ID/g
same,"Radioactive concentration, End region of femur",[1]; 30 min,0.02^b % ID/g
same,"Radioactive concentration, Liver",[1]; 30 min,0.02 ± 0.011 % ID/g
same,"Radioactive concentration, Spine",[1]; 30 min,0.01^b % ID/g
same,"Radioactive concentration, Administration site",[1]; 2 hrs,4404 ± 1806.8 % ID/g
same,"Radioactive concentration, End region of femur",[1]; 2 hrs,0.11 ± 0.104 % ID/g
same,"Radioactive concentration, Liver",[1]; 2 hrs,0.04 ± 0.024 % ID/g
same,"Radioactive concentration, Spine",[1]; 2 hrs,0.03 ± 0.030 % ID/g
same,"Radioactive concentration, Spleen",[1]; 2 hrs,0.03 ± 0.009 % ID/g
same,"Radioactive concentration, Administration site",[1]; 6 hrs,2197 ± 1334.3 % ID/g
same,"Radioactive concentration, End region of femur",[1]; 6 hrs,0.32 ± 0.068 % ID/g
same,"Radioactive concentration, Kidney",[1]; 6 hrs,0.03 ± 0.008 % ID/g
same,"Radioactive concentration, Liver",[1]; 6 hrs,0.12 ± 0.022 % ID/g
same,"Radioactive concentration, Spine",[1]; 6 hrs,0.07 ± 0.010 % ID/g
same,"Radioactive concentration, Spleen",[1]; 6 hrs,0.07 ± 0.006 % ID/g
same,"Radioactive concentration, Administration site",[1]; 24 hrs,1067 ± 941.8 % ID/g
same,"Radioactive concentration, End region of femur",[1]; 24 hrs,1.74 ± 0.424 % ID/g
same,"Radioactive concentration, Kidney",[1]; 24 hrs,0.07 ± 0.025 % ID/g
same,"Radioactive concentration, Liver",[1]; 24 hrs,0.18 ± 0.150 % ID/g
same,"Radioactive concentration, Spine",[1]; 24 hrs,0.45 ± 0.123 % ID/g
same,"Radioactive concentration, Spleen",[1]; 24 hrs,0.11 ± 0.073 % ID/g
same,"Radioactivity retained in the administration site, the prostate gland",[1]; listed as 166Ho(NO3)3.5H2O solution,about 30%
same,"Radioactivity retained in the administration site, the prostate gland",[1]; listed as radioisotope solution not containing chitosan,30%
same,"Radioactive concentration in liver, spleen, kidney and end region of the femur, fold higher than in the complex solution group",[1]; after 6 and 24 hrs,2 to 4 fold
same,"Radioactive concentration in the administration site, fold lower than in the complex solution group",[1]; after 6 hrs,2 fold
same,"Radioactive concentration in the administration site, fold lower than in the complex solution group",[1]; after 24 hrs,3 fold
"Holmium-165 (^165Ho)-chitosan complex [Non-radioactive complex, reference compound]",Tumor weight,[2]; four weeks after administration,18.1 ± 4.37 g
same,Tumor growth inhibition rate,[2],20.4%
same,Tumor growth inhibition rate,[2]; [6],about 20%
same,"Histopathological changes in organs other than the tumor tissue (heart, lung, liver, kidney, spleen, testes, epididymis, seminal vesicle, bladder, rectum)",[3],no abnormalities in adjacent organs were found
same,Change in tumor volume,[4]; last day of the test,greatly increased
same,Tumor volume after injection,[4]; 1 wk,1.24 ± 0.61 cm^3
same,Tumor volume after injection,[4]; 2 wks,5.03 ± 1.51 cm^3
same,Tumor growth inhibition rate,[4],23.1%
same,Tumor growth inhibition rate,[4]; [6],about 20%
same,Tumor weight,[5]; 2 wks after administration,1.93 ± 0.29 g
same,Tumor weight,[5]; 4 wks after administration,32.62 ± 2.32 g
